Data from US20120148680A1, “EYE CREAM AND PREPARATION METHOD” (MAYINGLONG PHARMACEUTICAL GROUP CO., LTD, priority 2010, published 2012).

System: red blood cells
Assay: Stimulation test, Red Blood Cell (RBC) test system, INVITTOX n° 37
Format: cell-based
Settings: relative to SDS
Experimental: Experimental method: Refer to ECVAM DB-ALM: INVITTOX protocol; Red Blood Cell Test System INVITTOX n° 37, hereinafter referred to as RBC test system.
The basic principle of the RBC test system is to determine the damage on the cell membrane caused by chemicals and the change of cell membrane permeability resulted from it. The damage degree of the cell membrane, which is directly related to the stimulation of a product, is evaluated through determining the amount of hemoglobin leaked from red blood cells.
The absorbance of red blood cell suspension after exposure to the chemicals is determined by spectrophotometric method, then the hemolysis rate and HSO value (i.e. the concentration value of the test substance, 50% of red blood cells of which develop hemolysis) can be calculated. The HSO value and the results of two grading standards in Draize test, i.e. the maximum average Draize total score (MAS) and the 24 h after application and scores of composition parameters (cornea, conjunctiva and iris) thereof are subjected to correlation analysis to show good consistency. At the same concentration, the higher the hemolysis rate of the sample is, the stronger the stimulation of the sample is.
The stimulation ratio of each sample is as shown in the following table relative to SDS after the comparison of the SDS stimulation ratio: […]

CCCCCCCCCCCCOS(=O)(=O)[O-].[Na+] [SDS control substance, SDS]
Stimulation ratio: 100%
